Source: patent US6518014B1, “Hepadnavirus cores” (priority 1996, dated 2003)
*1 amine or outer side, *2 acyl side, *3 side chain or, on linkers, in order; H or OH if unused. Where a SMILES comes first, the peptide text is derived from it. Bridges are numbered along the chain shown (N, C = ends). Roman numbers before positions name the chains, in order. [ ]: non-standard residue; d: D form. Actinocin(9to1) = Cc1c2oc3c(C)ccc(C(=O)[*:1])c3nc-2c(C(=O)[*:2])c(N)c1=O; NMeV = CN[C@H](C(=O)O)C(C)C; Sar = CNCC(=O)O

Key:
hepadnavirus polymerase [1] = biological target: T1, hepadnavirus polymerase (Hepatitis B virus genotype D subtype ayw, UniProt P03156); test: Endogenous polymerase assay (EPA) with size analysis of endogenously labeled DNA from nucleocapsids, actinomycin D comparative sample; type: biochemical; details: 80-100 μg per ml actinomycin D in comparative sample
T1 construct: made in house; host or cells: Spodoptera frugiperda SF9 cells infected with recombinant baculoviruses (pVL1393-derived)
T1 sequence (P03156 whole entry): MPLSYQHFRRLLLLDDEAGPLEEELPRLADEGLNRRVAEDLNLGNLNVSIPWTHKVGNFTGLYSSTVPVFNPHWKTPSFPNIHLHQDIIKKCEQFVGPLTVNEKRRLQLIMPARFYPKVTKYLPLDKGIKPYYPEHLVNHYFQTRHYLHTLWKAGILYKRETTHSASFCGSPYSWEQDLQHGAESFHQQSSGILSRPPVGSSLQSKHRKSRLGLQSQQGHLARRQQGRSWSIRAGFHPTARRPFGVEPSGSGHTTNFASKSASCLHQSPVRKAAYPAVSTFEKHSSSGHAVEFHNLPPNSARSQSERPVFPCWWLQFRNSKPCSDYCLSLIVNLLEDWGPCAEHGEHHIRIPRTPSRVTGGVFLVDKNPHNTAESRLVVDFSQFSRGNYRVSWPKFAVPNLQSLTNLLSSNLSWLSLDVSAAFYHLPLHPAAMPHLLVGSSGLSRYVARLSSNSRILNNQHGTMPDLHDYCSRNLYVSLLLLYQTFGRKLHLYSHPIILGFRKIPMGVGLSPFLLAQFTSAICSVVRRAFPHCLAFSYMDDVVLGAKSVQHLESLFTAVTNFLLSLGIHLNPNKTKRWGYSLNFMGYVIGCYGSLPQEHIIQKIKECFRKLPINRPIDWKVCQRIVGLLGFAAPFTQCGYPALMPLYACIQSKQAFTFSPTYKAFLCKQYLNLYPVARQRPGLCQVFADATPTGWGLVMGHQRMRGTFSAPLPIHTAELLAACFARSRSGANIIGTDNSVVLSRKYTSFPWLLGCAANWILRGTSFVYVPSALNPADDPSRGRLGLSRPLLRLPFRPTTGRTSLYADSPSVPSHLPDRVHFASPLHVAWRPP
Procedure: The beads were resuspended in 50 μl EPA reaction mix (50 mM Tris-HCl, pH 7.4, 75 mM NH4Cl, 1 mM EDTA, 20 mM MgCl2, 0.1 mM β-mercaptoethanol, 0.5% Tween 20, 50 μM dNTP mix (Ultrapure, Pharmacia, Uppsala, Sweden)), and the resulting suspension was incubated at 37° C. for 6 h.
The beads were washed once with 800 μl IP wash buffer (50 mM Tris-HCl, pH 7.4, 150 mM NaCl, 5 mM EDTA, 1% Triton-X 100, 0.02% SDS) and resuspended in 50 μl TNE (10 mM Tris-HCl, pH 7.4, 150 mM NaCl, 1 mM EDTA) containing 1% SDS and 10 mM dithiothreitol. The beads were then heated to boiling temperature (100 C) for 7 min to disintegrate the capsids, and the supernates isolated by centrifugation and transferred to microfuge cups, with the supemates from […] parallel reactions combined in each microfuge cup. […]
The synthesis that is actinomycin D sensitive is measured with the above-described EPA assay where 80-100 μg per ml of actinomycin D are added in a comparative sample.
SF9 cells were harvested 90 hours postinfection with recombinant viruses (a) BV-ECPE, (b) BV-EC+BV-PDE, (c) BV-EC and (d) BV-PDE. […] Immunoprecipitated core particles were subjected to EPA as described above, and deproteinized nucleic acids isolated from the assay samples were analyzed on a 1% agarose gel, and visualized by autoradiography. […]

hepadnavirus polymerase [2] = biological target: T1, hepadnavirus polymerase; test: In vitro polymerase activity of isolated core particles in the presence of Actinomycin D; type: biochemical; details: 100 μg/ml Actinomycin D; (−) strand synthesis from an RNA template
Source text: This observation further confirms that the primary activity observed is the (−) strand synthesis from an RNA template. Site-directed mutagenesis has been used to change an tyr-met-asp-asp (SEQ ID NO:16) sequence in the HBV polymerase active site to a tyr-met-his-ala (SEQ ID NO:17) sequence, a mutation that has been previously shown to destroy polymerase activity. See, for example, Seifer and Strandring, Intervirology 38:295-303,1995; Wang & Seeger, Cell 71:663-670, 1992. For an analogous active site mutation, see Radziwill et al., J. Virol. 64:613-620,1990. When this mutant is used in the methods of the invention to create core particles, the core particles lack polymerase activity. This observation confirms that it is indeed hepadnavirus polymerase activity that is being observed in the core particles of the invention.
A 96 well plate was prepared with wells containing either various dilutions of test sample containing a prospective bioactive agent, a positive control, a known hepadnavirus polymerase inhibitor, or an EDTA sample for which no polymerase activity should be detected and which thus indicates, after the assay processing, non-specific, background radioactivity. The plate has eight rows of wells, A through H, and twelve columns of wells, 1 through 12. […]
The background radioactivity determined from column 12, wells E through H, was subtracted from all of the remaining values. […]

Cc1c2oc3c(C)ccc(C(=O)N[C@@H]4C(=O)N[C@H](C(C)C)C(=O)N5CCC[C@H]5C(=O)N(C)CC(=O)N(C)[C@@H](C(C)C)C(=O)O[C@@H]4C)c3nc-2c(C(=O)N[C@@H]2C(=O)N[C@H](C(C)C)C(=O)N3CCC[C@H]3C(=O)N(C)CC(=O)N(C)[C@@H](C(C)C)C(=O)O[C@@H]2C)c(N)c1=O [Actinomycin D] (I: T[dV]P[Sar][NMeV] / II: T[dV]P[Sar][NMeV]; ester I:1-I:C, II:1-II:C; linker I:N-II:N via Actinocin(9to1))
actinomycin D sensitivity of EPA product nucleic acids, trans cores (hepadnavirus polymerase [1]; BV-EC+BV-PDE (trans) cores from SF9 cells): not the trans products | actinomycin D sensitivity of EPA product nucleic acids, cis cores (hepadnavirus polymerase [1]; BV-ECPE (cis) cores from SF9 cells): mostly actinomycin D sensitive | polymerase activity exhibited by core particles in the presence of Actinomycin D (hepadnavirus polymerase [2]): active
